# Results: patent US20040014676A1, “SRC kinase inhibitors useful for treating osteoporosis” (priority 2001, published 2004)
# Read-outs that look alike come from different tables or passages of the source.
# Target: T1, Src kinase (Homo sapiens, UniProt P12931)
# T1 construct: purchased Upstate Bioteolnology (sic; Upstate Biotechnology); later HMR stock 27597-019E1 #14-117
# Experiment: Phosphorylation assay of Src kinase inhibitors (radiometric, 96 well filter plate)
# Type: biochemical
# Settings: tested in the range of 400-0.098 µM, 10 µM peptide substrate (FIYGAFKKKKNH2), 5 µM unlabeled ATP, room temperature 30 min
# Method: The present invention provides novel compounds of Formulae I through XVIII discussed above. The following compounds which fall within Formulae I through XVIII are characterized by structure, IUPAC name and activity using phosphorylation assay for protein tyrosine Src kinase.
# Phosphorylation Assay of Src Kinase Inhibitors
# The activity of Src kinase was measured in a 96 well plate phosphorylation assay where the transfer of gamma phosphate from ATP to peptide substrate was measured radiometrically. […] Ki values were determined experimentally for some of the inhibitors. The phosphocellulose filter plates (Millipore catalog #MAPH NOB) were prewet prior to the phosphorylation assay by addition of 100 1 per well of 30 mM MES buffer+0.4 mg/ml BSA. After a 20-minute incubation, the buffer was removed completely via a Millipore vacuum manifold. The phosphorylation assay was then set up in the filter plates in a total volume per well of 60 1. The 60 1 consisted of compound (see concentration ranges above), a 1:100 dilution of Src kinase (originally Upstate Bioteolnology, #14-117; later HMR stock 27597-019E1) or assay buffer alone (for no enzyme control wells), 10 M peptide substrate (FIYGAFKKKKNH2), 5 M unlabeled ATP and a 1:500 dilution of P-ATP (New England Nuclear, catalog #NEG-602H, 2000 Ci/mmol). The reaction was mixed and incubated at room temperature for 30 min. The kinase reactions were stopped by addition of 150 mM H3PO4 and incubated for 10 minutes. The filter plate wells were filtered and washed seven times with 200 1 per well of 150 mM H3PO4. Finally, the filter plate was placed into a Packard plate adapter (Packard catalog #600517B), 35 1 of Microscint-20 (Packard catalog #6013621) was added to each well, the plate was sealed (TopSeal A sealers; Packard catalog #6005185) and counted on a Packard TopCount.
# T1 sequence (P12931 whole entry): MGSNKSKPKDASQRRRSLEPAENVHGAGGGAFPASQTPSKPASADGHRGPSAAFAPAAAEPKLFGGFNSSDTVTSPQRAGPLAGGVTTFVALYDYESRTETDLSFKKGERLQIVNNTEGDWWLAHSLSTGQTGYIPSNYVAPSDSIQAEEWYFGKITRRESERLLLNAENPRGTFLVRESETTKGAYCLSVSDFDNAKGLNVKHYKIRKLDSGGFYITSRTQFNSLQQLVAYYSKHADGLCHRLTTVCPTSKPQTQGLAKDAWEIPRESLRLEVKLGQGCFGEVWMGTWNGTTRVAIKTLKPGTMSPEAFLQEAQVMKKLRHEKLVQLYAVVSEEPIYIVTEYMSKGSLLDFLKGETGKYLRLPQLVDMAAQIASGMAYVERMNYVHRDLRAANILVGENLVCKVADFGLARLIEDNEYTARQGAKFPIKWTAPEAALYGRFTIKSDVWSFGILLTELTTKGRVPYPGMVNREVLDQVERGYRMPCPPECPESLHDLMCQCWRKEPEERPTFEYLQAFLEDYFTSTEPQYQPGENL
Structure (SMILES),"IC50 (duplicates, read-out: IC50)","IC50 (IC50, duplicates)"
"NC(=O)CNC(=O)c1cc2ccccc2cc1OCCCCNC(=O)[C@@H](N)Cc1c(F)c(F)c(F)c(F)c1F [Example 43, 3-[[4-[[2(S)-AMINO-3-(2,3,4,5,6- PENTAFLUORO)PHENYL-1-OXO]- PROPYL]AMINO]BUTOXY]- NAPHTHALENE-2- (N-ACETAMIDO)CARBOXAMIDE]",1.38 µM,–
"NC(=O)CNC(=O)c1cc2ccccc2cc1OCCCCNC(=O)[C@H](N)Cc1ccc(O)cc1 [Example 56, 3-[4-[[[2(R)-AMINO-3-(4-HYDROXY- PHENYL-1-OXO]PROPYL]AMINO]- BUTOXY]-NAPHTHALENE-2-(N- ACETAMIDO)CARBOXAMIDE]",50 µM,–
"NC(=O)CNC(=O)c1cc2ccccc2cc1OCCCCNC(=O)[C@H](Cc1ccc(O)cc1)NC(=O)c1ccccc1 [Example 17, 3-[4-[[2(S)-(N-BENZOYLAMINO)-3-(4- HYDROXYPHENYL)-1-OXOPROPYL]- AMINO]BUTOXY]-NAPHTHALENE-2- [N-(2-AMIDOMETHYL)]CARBOXAMIDE]",23 µM,–
"NCC(=O)N[C@@H](Cc1ccc(O)cc1)C(=O)NCCCCOc1cc2ccccc2cc1C(=O)NCC(N)=O [Example 74, 3-[4-[[[(1-OXO-2-[(N-AMINOMETHYL- CARBONYL)(S)AMINO]3-(4-HYDROXY- PHENYL)]PROPYL]AMINO]BUTOXY]- NAPHTHALENE-2-(N-ACETAMIDO)- CARBOXAMIDE]",25 µM,–
"NC(=O)CNC(=O)c1cc2ccccc2cc1OCCCCNC(=O)C(N)C1Cc2ccccc2C1 (stereo not shown) [Example 52, 3-[4-[N-[1-OXO-2-AMINO-2-(INDAN-2- YL)]ETHYL]-AMINOBUTOXY]- NAPHTHALENE-2-(N-ACETAMIDO)- CARBOXAMIDE]",1.56 µM,–
"NC(=O)CNC(=O)[C@H](Cc1ccccc1)NCCCCCNC(=O)[C@H](N)Cc1csc2ccccc12 [Example 81, N-[((S)BENZYL)[(AMINO)(CARBONYL)- (METHYL)(AMINO)(CARBONYL)]- METHYL]-5-[[N-[1-OXO-2-AMINO-3- (R)(BENZOTHIOPHEN-3- YL)]PROPYL]AMINO]PENTYLAMINE]",6 µM,–
"NC(=O)CNC(=O)c1cc2ccccc2cc1OCCCCNC(=O)[C@H](N)Cc1ccccc1 [Example 53, 3-[4-[[[2(R)-AMINO-3-PHENYL-1- OXO]PROPYL]AMINO]BUTOXY]- NAPHTHALENE-2-(N-ACETAMIDO)- CARBOXAMIDE]",1.4 µM,–
"N[C@@H](Cc1ccc(O)cc1)C(=O)NCCCCOc1cc2ccccc2cc1C(=O)NCC(=O)NCCCO [Example 99, 3-[[4-[[1-OXO-2(S)-AMINO-3-(4- HYDROXYPHENYL)]PROPYL]AMINO]- BUTOXY]NAPHTHALENE-2-[N-[[[[3- HYDROXYPROPYL]AMINO]- CARBONYL]METHYL]]CARBOXAMIDE]",0.49 µM,–
"NC(=O)CNC(=O)c1cc2ccccc2cc1OCCCCNC(=O)[C@@H](N)Cc1cccnc1 [Example 48, 3-[[4-[[2(S)-AMINO-3-(PYRIDIN-3-YL)-1- OXO]PROPYL]AMINO]BUTOXY]- NAPHTHALENE-2-(N-ACETAMIDO)- CARBOXAMIDE]",9.6 µM,–
"CNC(=O)[C@@H](Cc1ccc(C(=O)OC)cc1)C(=O)NCCCCOc1cc2ccccc2cc1C(=O)NCC(N)=O [Example 147, 3-[[4-[N-[1-OXO-2-(N-METHYLAMINO- CARBONYL)-3-[(4-(METHOXY- CARBONYL)PHENYL]]PROPYL]- AMINO]BUTOXY]-NAPHTHALENE-2- (N-ACETAMIDO)CARBOXAMIDE]",18 µM,–
"NC(=O)CNC(=O)c1cc2ccccc2cc1OCCNC(=O)[C@@H](N)Cc1ccc(O)cc1 [Example 92, 3-[2-[[[1-OXO-2(S)-AMINO-3-HYDROXY- PHENYL)]PROPYL]AMINO]ETHOXY]NAPHTHALENE-2-(N-]",–,3.4 µM
"NC(=O)CNC(=O)c1cc2ccccc2cc1OCCCCNC(=O)[C@@H](N)Cc1csc2ccccc12 [Example 44, 3-[[4-[[2(S)-AMINO-3(BENZOTHIOPHEN- 3-YL)-1-OXO]PROPYL]AMINO]- BUTOXY]-NAPHTHALENE-2- (N-ACETAMIDO)CARBOXAMIDE]",0.23 µM,–
"CC(C)(C)C(=O)NCCCCOc1cc2ccccc2cc1C(=O)NCC(N)=O [Example 66, 3-[4-[[(1-OXO-2,2-DIMETHYL)PROPYL]- AMINO]BUTOXY]-NAPHTHALENE-2- (N-ACETAMIDO)CARBOXAMIDE]",6 µM,–
"NC(=O)CNC(=O)c1cc2ccccc2cc1OCCCCNC(=O)[C@@H](N)CC1CCCCC1 [Example 49, 3-[[4-[[2(S)-AMINO-3(CYCLOHEXYL)-1- OXO]PROPYL]AMINO]BUTOXY]- NAPHTHALENE-2-(N-ACETAMIDO)- CARBOXAMIDE]",0.92 µM,–
"CNC(=O)C(Cc1ccc(C#N)cc1)C(=O)NCCCCOc1cc2ccccc2cc1C(=O)NCC(N)=O (stereo not shown) [Example 124, N-(4-{3-[N-(carbamoylmethyl)carbamoyl](2-naphthyloxy)}butyl)-2RS-[(4-cyanophenyl)methyl]-N′-methylpropane-1,3-diamide]",6 µM,–
NC(=O)CCNC(=O)c1cc2ccccc2cc1OCCCCNC(=O)[C@@H](N)Cc1ccc(O)cc1 [Example 102],52 µM,–
"CN[C@@H](Cc1ccccc1)C(=O)NCCCCOc1cc2ccccc2cc1C(=O)NCC(N)=O [Example 67, 3-[4-[[(1-OXO-2(S)-METHYLAMINO-3- PHENYL)PROPYL]AMINO]BUTOXY]- NAPHTHALENE-2-(N-ACETAMIDO)- CARBOXAMIDE]",2.3 µM,–
"NC(=O)CNC(=O)c1cc2ccccc2cc1OCCCCNC(=O)[C@H](Cc1ccc(O)cc1)NC(=O)OCc1ccccc1 [Example 18, 3-[4-[[2(S)-(N-BENZYLOXY- CARBONYL)AMINO-3-(4-HYDROXY- PHENYL)-1-OXOPROPYL]AMINO]- BUTOXY]-NAPHTHALENE-2-[N-(2- AMIDOMETHYL)]CARBOXAMIDE]",32 µM,–
"N[C@@H](Cc1ccc(O)cc1)C(=O)NCCCCOc1c(O)cc(C(=O)NCC(=O)CCCO)cc1O [Example 3, ALPHA(S)-AMINO-N-[4-[2,6-DI- HYDROXY-4-[[(5-HYDROXY-2-OXO- PENTYL)AMINO]CARBONYL]- PHENOXY] BUTYL]-4- HYDROXYBENZENEPROPANAMIDE]",≥ 500 µM,–
"NC(=O)CNC(=O)c1c(Cl)c(Cl)cc(Cl)c1OCCCCNC(=O)[C@@H](N)Cc1ccc(O)cc1 [Compound 136, (2S)-2-amino-N-(4-{2-[N-(carbamoylmethyl)carbamoyl]-3,4,6-trichlorophenoxy)butyl)-3-(4-hydroxyphenyl)propanamide]",200 µM,–
"NC(=O)CC(=O)Nc1cc2ccccc2cc1OCCCCNC(=O)[C@@H](N)Cc1ccc(O)cc1 [Compound 151, (2S)-2-amino-N-{4-[3-(2-carbamoylacetylamino)(2-naphthyloxy)]butyl}-3-(4-hydroxyphenyl)propanamide]",5 µM,–
"NC(=O)CNC(=O)c1cc2ccccc2cc1OCCCCNC(=O)[C@@H](N)Cc1ccccn1 [Example 47, 3-[[4-[[2(S)-AMINO-3(PYRIDIN-2-YL)-1- OXO]PROPYL]AMINO]BUTOXY]- NAPHTHALENE-2-(N-ACETAMIDO)- CARBOXAMIDE]",17 µM,–
"NC(=O)CNC(=O)c1cc2ccccc2cc1OCCCCNC(=O)[C@@H](N)Cc1ccc(-c2ccccc2)cc1 [Example 38, 3-[[4-[[2(S)-AMINO-3-(BIPHEN-1-YL)-1- OXO]PROPYL]AMINO]BUTOXY]- NAPHTHALENE-2-(N- ACETAMIDO)CARBOXAMIDE]",30 µM,–
"NC(=O)CNC(=O)c1cc2ccccc2cc1OCCCCNC(=O)[C@@H](N)CC1=CS(=O)(=O)c2ccccc21 [Compound 155, (2S)-2-amino-3-(1,1-dioxobenzo[b]thiophen-3-yl)-N-(4-{3-[N-(carbamoylmethyl)carbamoyl](2-naphthyloxy)}butyl)propanamide]",5 µM,–
"NC(=O)CNC(=O)[C@@H](Cc1cccc2ccccc12)NCCCCCNC(=O)[C@H](N)Cc1csc2ccccc12 [Example 82, N-[((R)NAPHTH-1-YL)[(AMINO)- (CARBONYL)(METHYL)(AMINO)- (CARBONYL)]METHYL]-5-[N-[[N-[1- OXO-2-AMINO-3-(R)(BENZOTHIOPHEN- 3-YL)]PROPYL]AMINO]PENTYLAMINE]",6 µM,–
"NC(=O)CNC(=O)c1cc2ccccc2cc1OCCCCNC(=O)[C@H](Cc1ccc(O)cc1)NC=O [Example 72, 3-[4-[[[1-OXO-2-(N-FORMYLAMINO)-3- (4-HYDROXYPHENYL)]PROPYL]- (S)AMINO]BUTOXY]-NAPHTHALENE- 2-(N-ACETAMIDO)CARBOXAMIDE]",6 µM,–
"NC(=O)CNC(=O)c1cc2ccccc2cc1/N=C(/OCCCCNC(=O)C(N)Cc1ccc(O)cc1)C(F)(F)F (stereo not shown) [Example 127, 3-[[1-TRIFLUOROMETHYL][1-[4-[[[1- OXO-2-AMINO-3-HYDROXYPHENYL)]- PROPYL]AMINO]BUTOXY]]- METHYLENIMINO]-NAPHTHALENE-2- [N-ACETAMIDO]CARBOXAMIDE]",19 µM,–
"NC(=O)CNC(=O)c1cc2ccccc2cc1OCCCC(NC(=O)[C@H](N)Cc1csc2ccccc12)C(=O)O (stereo partly drawn) [Example 97, 3-[[4-[[1-OXO-2(S)-AMINO-3-(BENZO- THIOPHEN-3-YL)]PROPYL]AMINO][4- CARBOXY]BUTOXY]NAPHTHALENE-2- (N-ACETAMIDO)CARBOXAMIDE]",26 µM,–
